In ChEMBL document CHEMBL1132519, “Synthesis and sar of 2- and 3-substituted 7-azaindoles as potential dopamine D4 ligands” (Bioorg Med Chem Lett, 1999):

What was measured:
D(4) dopamine receptor = biological target: T1, D(4) dopamine receptor (Homo sapiens, UniProt P21917)
T1 sequence (P21917 whole entry): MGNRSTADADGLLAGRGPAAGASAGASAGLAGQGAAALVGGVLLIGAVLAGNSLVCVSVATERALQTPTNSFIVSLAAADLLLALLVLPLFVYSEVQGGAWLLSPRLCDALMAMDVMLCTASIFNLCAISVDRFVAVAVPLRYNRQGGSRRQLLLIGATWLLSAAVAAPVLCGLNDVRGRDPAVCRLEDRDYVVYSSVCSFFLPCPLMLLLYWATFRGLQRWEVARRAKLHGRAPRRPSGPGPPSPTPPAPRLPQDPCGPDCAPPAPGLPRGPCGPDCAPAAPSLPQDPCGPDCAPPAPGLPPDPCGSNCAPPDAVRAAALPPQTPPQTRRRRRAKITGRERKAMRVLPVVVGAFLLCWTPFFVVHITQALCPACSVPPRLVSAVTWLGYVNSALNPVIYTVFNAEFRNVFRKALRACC
Description: Ability to displace [3H]spiperone from cloned human dopamine D4 receptor stably expressed in HEK293 cells

D(3) dopamine receptor = D(3) dopamine receptor (Homo sapiens, UniProt P35462)
Sequence of D(3) dopamine receptor (P35462 whole entry): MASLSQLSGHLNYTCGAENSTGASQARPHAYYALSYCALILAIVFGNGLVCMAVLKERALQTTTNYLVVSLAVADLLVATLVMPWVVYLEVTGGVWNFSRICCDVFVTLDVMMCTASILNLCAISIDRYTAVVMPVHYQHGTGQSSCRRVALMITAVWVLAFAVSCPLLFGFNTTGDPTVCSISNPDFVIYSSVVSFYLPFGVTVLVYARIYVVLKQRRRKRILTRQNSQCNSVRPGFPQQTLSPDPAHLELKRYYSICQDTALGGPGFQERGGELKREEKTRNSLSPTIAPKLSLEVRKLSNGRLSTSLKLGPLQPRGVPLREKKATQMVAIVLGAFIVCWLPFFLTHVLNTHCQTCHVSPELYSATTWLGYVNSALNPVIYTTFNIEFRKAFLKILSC
Description: Ability to displace [3H]-spiperone from cloned human dopamine D3 receptor stably expressed in CHO cells

D(2) dopamine receptor = D(2) dopamine receptor (Homo sapiens, UniProt P14416)
Sequence of D(2) dopamine receptor (P14416 whole entry): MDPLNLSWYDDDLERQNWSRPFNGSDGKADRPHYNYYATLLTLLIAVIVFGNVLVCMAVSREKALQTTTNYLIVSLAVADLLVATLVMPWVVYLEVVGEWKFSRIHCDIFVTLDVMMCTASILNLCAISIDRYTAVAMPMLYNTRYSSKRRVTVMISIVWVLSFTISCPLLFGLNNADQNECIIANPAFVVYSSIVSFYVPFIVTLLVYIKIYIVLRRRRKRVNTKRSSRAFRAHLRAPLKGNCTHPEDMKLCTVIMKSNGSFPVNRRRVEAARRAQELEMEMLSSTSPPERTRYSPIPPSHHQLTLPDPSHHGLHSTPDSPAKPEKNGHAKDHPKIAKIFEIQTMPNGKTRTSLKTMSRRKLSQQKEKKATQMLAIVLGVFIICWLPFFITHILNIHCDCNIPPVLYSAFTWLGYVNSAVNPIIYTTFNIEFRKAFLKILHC
Description: Ability to displace [3H]spiperone from cloned human dopamine D2 receptor stably expressed in CHO cells

Structure (SMILES)	Ki (D(4) dopamine receptor) [nM]	Ki (D(3) dopamine receptor) [nM]	Ki (D(2) dopamine receptor) [nM]
C1=C(/C=C/c2ccccc2)CCN(CCc2cc3ccc[nH]c-3n2)C1	30	25	1300
Clc1ccc(N2CCN(CCc3cc4cccnc4[nH]3)CC2)cc1	11.7	50	800
C1=C(c2ccccc2)CCN(CCc2c[nH]c3ncccc23)C1	34	10	21
COc1ccc(N2CCN(CCc3c[nH]c4ncccc34)CC2)cc1	26	530	900
COc1ccc(N2CCN(Cc3c[nH]c4ncccc34)CC2)cc1	–	3900	> 1500
c1ccc(CCC2CCN(Cc3cc4ccc[nH]c-4n3)CC2)cc1	2	250	200

Other lines, results leading:

Ki (D(4) dopamine receptor) [nM]	Ki (D(3) dopamine receptor) [nM]	Ki (D(2) dopamine receptor) [nM]	Structure (SMILES)
1.8	1300	1100	c1ccc(CCC2CCN(Cc3c[nH]c4ncccc34)CC2)cc1
7	170	640	c1ccc2c(c1)CCN(Cc1c[nH]c3ncccc13)C2
59	1100	600	c1c[nH]c2nc(CN3CCc4ccccc4C3)cc-2c1
6.5	180	280	C1=C(/C=C/c2ccccc2)CCN(CCc2c[nH]c3ncccc23)C1
